Values after ≈ are worked out from the molar mass of the structure shown.
Columns and labels:
Test in all cases: in vitro antibacterial evaluation, MIC by broth dilution
Type in all cases: cell-based
[1] = test system: Streptococcus sp.; conditions: broth dilution, 18 hours at 35° C.
Outline: (§1)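 Inoculum 5×10^5 CFU/mL; concentrations 64 to 0.06 μg/mL; MIC defined as lowest inhibitory level. Conducted by broth dilution under NCCLS guidelines.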

[2] = test system: Escherichia coli; conditions: 18 hours at 35° C.
Outline: as §1

[3] = test system: Enterococcus sp.; conditions: broth dilution, 18 hours at 35° C.
Outline: as §1

[4] = test system: Staphylococcus sp.; conditions: broth dilution, 18 hours at 35° C.
Outline: as §1

MIC Streptococcus agalactiae (GC 4564) ([1]; Streptococcus agalactiae (GC 4564)): 1 µg/mL (≈ 0.708 µM) | MIC Streptococcus pneumoniae (ATCC 6301) ([1]; Streptococcus pneumoniae (ATCC 6301)): <0.06 µg/mL | MIC Streptococcus pneumoniae (GC 1894) ([1]; Streptococcus pneumoniae (GC 1894)): <0.06 µg/mL | MIC Streptococcus pneumoniae (GC 4565) ([1]; Streptococcus pneumoniae (GC 4565)): <0.06 µg/mL | MIC Streptococcus pyogenes (GC 4563) ([1]; Streptococcus pyogenes (GC 4563)): 0.12 µg/mL (≈ 0.085 µM) | MIC Streptococcus pneumoniae (ATCC 6301) ([1]; strain ATCC 6301): <0.06 µg/mL | MIC Streptococcus pneumoniae (GC 1894) ([1]; strain GC 1894): <0.06 µg/mL | MIC Streptococcus pyogenes (GC 4563) ([1]; strain GC 4563): 0.12 µg/mL (≈ 0.085 µM) | MIC Streptococcus agalactiae (GC 4564) ([1]; strain GC 4564): 1 µg/mL (≈ 0.708 µM) | MIC Streptococcus pneumoniae (GC 4565) ([1]; strain GC 4565): <0.06 µg/mL | MIC Escherichia coli (ATCC 25922) ([2]; strain ATCC 25922): 32 µg/mL (≈ 22.7 µM) | MIC Escherichia coli (GC 4559) ([2]; strain GC 4559): 32 µg/mL (≈ 22.7 µM) | MIC Escherichia coli (GC 4560) ([2]; strain GC 4560): 1 µg/mL (≈ 0.708 µM) | MIC Enterococcus avium (GC 4558) ([3]; Enterococcus avium (GC 4558)): 0.25 µg/mL (≈ 0.177 µM) | MIC Enterococcus faecalis (ATCC 29212) ([3]; Enterococcus faecalis (ATCC 29212)): 4 µg/mL (≈ 2.83 µM) | MIC Enterococcus faecalis (GC 2242) ([3]; Enterococcus faecalis (GC 2242)): 4 µg/mL (≈ 2.83 µM) | MIC Enterococcus faecalis (GC 2691) ([3]; Enterococcus faecalis (GC 2691)): 4 µg/mL (≈ 2.83 µM) | MIC Enterococcus faecalis (GC 3059) ([3]; Enterococcus faecalis (GC 3059)): 4 µg/mL (≈ 2.83 µM) | MIC Enterococcus faecalis (GC 4552) ([3]; Enterococcus faecalis (GC 4552)): 4 µg/mL (≈ 2.83 µM) | MIC Enterococcus faecalis (GC 4553) ([3]; Enterococcus faecalis (GC 4553)): 4 µg/mL (≈ 2.83 µM) | MIC Enterococcus faecalis (GC 4554) ([3]; Enterococcus faecalis (GC 4554)): 4 µg/mL (≈ 2.83 µM) | MIC Enterococcus faecalis (GC 6189) ([3]; Enterococcus faecalis (GC 6189)): 4 µg/mL (≈ 2.83 µM) | MIC Enterococcus faecium (GC 2243) ([3]; Enterococcus faecium (GC 2243)): 4 µg/mL (≈ 2.83 µM) | MIC Enterococcus faecium (GC 4556) ([3]; Enterococcus faecium (GC 4556)): 4 µg/mL (≈ 2.83 µM) | MIC Enterococcus faecium (GC 4557) ([3]; Enterococcus faecium (GC 4557)): 1 µg/mL (≈ 0.708 µM) | MIC Enterococcus faecalis (ATCC 29212) ([3]; strain ATCC 29212): 4 µg/mL (≈ 2.83 µM) | MIC Enterococcus faecalis (GC 2242) ([3]; strain GC 2242): 4 µg/mL (≈ 2.83 µM) | MIC Enterococcus faecium (GC 2243) ([3]; strain GC 2243): 4 µg/mL (≈ 2.83 µM) | MIC Enterococcus faecalis (GC 2691) ([3]; strain GC 2691): 4 µg/mL (≈ 2.83 µM) | MIC Enterococcus faecalis (GC 3059) ([3]; strain GC 3059): 4 µg/mL (≈ 2.83 µM) | MIC Enterococcus faecalis (GC 4552) ([3]; strain GC 4552): 4 µg/mL (≈ 2.83 µM) | MIC Enterococcus faecalis (GC 4553) ([3]; strain GC 4553): 4 µg/mL (≈ 2.83 µM) | MIC Enterococcus faecalis (GC 4554) ([3]; strain GC 4554): 4 µg/mL (≈ 2.83 µM) | MIC Enterococcus faecium (GC 4556) ([3]; strain GC 4556): 4 µg/mL (≈ 2.83 µM) | MIC Enterococcus faecium (GC 4557) ([3]; strain GC 4557): 1 µg/mL (≈ 0.708 µM) | MIC Enterococcus avium (GC 4558) ([3]; strain GC 4558): 0.25 µg/mL (≈ 0.177 µM) | MIC Enterococcus faecalis (GC 6189) ([3]; strain GC 6189): 4 µg/mL (≈ 2.83 µM) | MIC Staphylococcus aureus (ATCC 29213) [4]: 2 µg/mL (≈ 1.42 µM) | MIC Staphylococcus aureus (GC 1131) [4]: 2 µg/mL (≈ 1.42 µM) | MIC Staphylococcus aureus (GC 3051) [4]: 2 µg/mL (≈ 1.42 µM) | MIC Staphylococcus aureus (GC 3053) [4]: 2 µg/mL (≈ 1.42 µM) | MIC Staphylococcus aureus (GC 4541) [4]: 2 µg/mL (≈ 1.42 µM) | MIC Staphylococcus aureus (GC 4542) [4]: 1 µg/mL (≈ 0.708 µM) | MIC Staphylococcus aureus (GC 4544) [4]: 2 µg/mL (≈ 1.42 µM) | MIC Staphylococcus aureus (GC 4545) [4]: 2 µg/mL (≈ 1.42 µM) | MIC Staphylococcus aureus (GC 1131) ([4]; inoculum 5×10^5 CFU/mL, strain GC 1131): 2 µg/mL (≈ 1.42 µM) | MIC Staphylococcus aureus (ATCC 29213) ([4]; strain ATCC 29213): 2 µg/mL (≈ 1.42 µM) | MIC Staphylococcus aureus (GC 3051) ([4]; strain GC 3051): 2 µg/mL (≈ 1.42 µM) | MIC Staphylococcus aureus (GC 3053) ([4]; strain GC 3053): 2 µg/mL (≈ 1.42 µM) | MIC Staphylococcus aureus (GC 4541) ([4]; strain GC 4541): 2 µg/mL (≈ 1.42 µM) | MIC Staphylococcus aureus (GC 4542) ([4]; strain GC 4542): 1 µg/mL (≈ 0.708 µM) | MIC Staphylococcus aureus-SMITH (GC 4543) ([4]; strain GC 4543): 2 µg/mL (≈ 1.42 µM) | MIC Staphylococcus aureus (GC 4544) ([4]; strain GC 4544): 2 µg/mL (≈ 1.42 µM) | MIC Staphylococcus aureus (GC 4545) ([4]; strain GC 4545): 2 µg/mL (≈ 1.42 µM) | MIC Coagulase Negative Staphylococcus (GC 4547) ([4]; strain GC 4547): 2 µg/mL (≈ 1.42 µM) | MIC Coagulase Negative Staphylococcus (GC 4548) ([4]; strain GC 4548): 1 µg/mL (≈ 0.708 µM) | MIC Coagulase Negative Staphylococcus (GC 4549) ([4]; strain GC 4549): 1 µg/mL (≈ 0.708 µM) | MIC Coagulase Negative Staphylococcus (GC 4551) ([4]; strain GC 4551): 2 µg/mL (≈ 1.42 µM) | MIC Coagulase Negative Staphylococcus (GC 6257) ([4]; strain GC 6257): 1 µg/mL (≈ 0.708 µM) | MIC Staphylococcus aureus-SMITH (GC 4543) ([4]; strain SMITH GC 4543): 2 µg/mL (≈ 1.42 µM)
SMILES: CC(c1ccccc1)C1NC(=O)CNC(=O)C(CO)NC(=O)C(C(O)C2CNC(=N)N2C2OC(CO)C(O)C(O)C2O)NC(=O)C(C(O)C2CNC(=N)N2)NC(=O)C(Cc2ccc(OC3OC(CO)C(OC4OC5COC(CCc6ccccc6)OC5C(O)C4O)C(O)C3O)cc2)NC1=O (stereo not shown) [Example 124]
MIC Staphylococcus haemolyticus (GC 4546) ([4]; strain GC 4546): 2 µg/mL (≈ 1.42 µM)

Source: patent US6914045B2, “Glycopeptide antibiotics” (Wyeth Holdings Corporation, priority 2001, dated 2005)
